Measurements: US5244916A, “Inhibition of respiratory burst using posttranslational modification inhibitors” (The Scripps Research Institute, priority 1992, dated 1993)

How the values were obtained:
[1] = test system: Rap1; assay: Western blot of Rap1 in membrane and cytosol fractions of HL-60 cells; type: cell-based; conditions: 10 μM compactin
Method: Western blots were performed as described in Bokoch, et al., Cell Biol. 106: 1927-1936 (1988).
The ability of the concentrations of compactin used to inhibit endogenous HL-60 cell LMWG isoprenylation was assessed. Inhibition of Rapl isoprenylation was determined in two ways. Western blotting was used to evaluate the presence of Rap1 in cytosol or membrane fractions of compactin-treated vs. untreated cells (see FIG. 1). […] HL-60 cells were treated with ±10 μM compactin, and membrane and cytosol fractions were prepared as described in Example 1. Equal amounts of membrane protein (100 μg) and cytosol protein (70 μg), respectively,were loaded in each lane. Total membrane protein obtained in this experiment from about 3×10^8 cells was about 3 mg and cytosolic protein was about 2 mg. The samples were analyzed on 15% SDS-polyacrylamide gels (SDS-PAGE), transferred to nitrocellulose, and blotted with specific anti-Rapl antibody, R61, at 1:500 dilution. Detection was with ^125 I-goat anti-rabbit IgG and autoradiograms were exposed for 24-36 hours with intensifying screen at -70° C.

[2] = test system: cytochrome b558; assay: Cytochrome b558 levels in HL-60 cells by Western blot; type: cell-based; conditions: 10 μM compactin
[3] = test system: HL-60 cells; assay: HL-60 differentiation after DMSO (N-formyl peptide receptor and CD14 markers); type: cell-based; conditions: concentrations of the studies
Method: Cell viability was determined by uptake of propidium iodide (537-059; Calbiochem-Behring Corp., La Jolla, CA), detected from the emission fluorescence at 625/35 nm using a DM560 dichronic mirror (Krishan, J. Cell. Biol. 66: 188-192 (1975)). Expression of N-formyl peptide receptor was determined using fluorescein-labeled N-CHONle-Leu-Phe-Nle-Tyr-Lys (Molecular Probes, Inc., Eugene, OR) essentially by the method of Sklar and Finney (Sklar and Finney, Cytometry 3: 161-165 (1982)). Specificity of ligand binding was determined in the presence of 4 mM unlabeled T-boc peptide. CD14 expression was determined using monoclonal antibody 3C10 at a dilution of 1:1,000 (see Goyert and Ferrero, in Leucocyte Typing III: White Cell Differentiation Antigens, McMichael, ed., Oxford Univ. Press, NY, pp. 613-619 (1988)), with detection using a fluorescein-labeled secondary antibody. Flow cytometric analyses were performed on a FACSIV (registered trademark of Becton-Dickinson, San Jose, CA) equipped with a 2W argon laser (Coherent Inc., Palo Alto, collected in list mode and analyzed using the Consort 30 program (Becton-Dickinson, San Jose, CA) after collecting 10,000 events.
(§1) HL-60 differentiation was assessed using two distinct markers: appearance of N-formyl peptide receptors and appearance of the CD14 antigen.

[4] = test system: N-formyl peptide receptor; assay: HL-60 differentiation: N-formyl peptide receptor expression (flow cytometry); type: cell-based; conditions: compactin-treated cells
Method: HL-60 cells were maintained in stationary culture in RPMI 1640 medium (Gibco, Grand Island, NY) containing 10% fetal bovine serum at 37° C in an atmosphere of 95 air and 5% CO2. The cells (about 8×10^5 /ml) were differentiated into neutrophil-like cells by treatment with 1.3% DMSO for six days (Harris, et al., J. Leukocyte Biol. 37: 407-422 (1985)). The cells were treated with the indicated levels of compactin or lovastatin by addition of a 1,000-fold concentrated stock solution to the appropriate concentration on day 4 of differentiation. […]
Cell viability was determined by uptake of propidium iodide (537-059; Calbiochem-Behring Corp., La Jolla, CA), detected from the emission fluorescence at 625/35 nm using a DM560 dichronic mirror (Krishan, J. Cell. Biol. 66: 188-192 (1975)). Expression of N-formyl peptide receptor was determined using fluorescein-labeled N-CHONle-Leu-Phe-Nle-Tyr-Lys (Molecular Probes, Inc., Eugene, OR) essentially by the method of Sklar and Finney (Sklar and Finney, Cytometry 3: 161-165 (1982)). Specificity of ligand binding was determined in the presence of 4 mM unlabeled T-boc peptide. […]
as §1

[5] = test system: NADPH oxidase; assay: Cell-free O2- formation by subcellular fractions from compactin-treated HL-60 cells, complemented with human neutrophil fractions, SDS-initiated; type: biochemical; conditions: for Rate of O2 formation / Rate, percent of respective untreated HL-60 sample: 10 μM
Method: The cells were then pelleted and resuspended in 10 mM Pipes pH 7.3, 100 mM KCl, 3 mM NaCl, 1 mM ATP, 3.5mM MgCl2 (Relax buffer) plus 100U aprotonin/ml, 1 mM PMSF, and 0.34M sucrose to a final concentration of about 1×10^8 /ml. […] Louis, MO), 6.25 mM MgCl2, 93 mM KCl, 2.8 mM NaCl, 9.3 mM Pipes pH 7.3, 0.8mM ATP, 0.16 mM NADPH, 10 μM GTPgammaS, 225 μg HL-60 cytosol, or 250 μg ([…]; cell equivalents) of human neutrophil cytosol and ±300μg/ml SOD (Sigma Chemical Co., St. Louis, MO). After a three-minute equilibration at 25° C., the formation of O2 --was initiated by the addition of 100 μM SDS. O2 --generation was monitored continuously as the SOD-sensitive reduction of cytochrome c at 550 nm. Human neutrophil plasma membranes (gamma-GSP) and cytosol (GSS) were prepared as described in (Curnutte, et al., suora (1987)). […] To localize the compactin-sensitive factor required for NADPH oxidase activity to either the cytosol, membrane, or both, subcellular fractions from control or compactin-treated differentiated HL-60 cells were prepared. The membrane fraction and cytosol from the cells were then analyzed using the cell-free NADPH oxidase system. […] HL-60 cells were treated ±10 μM compactin, as described herein. Untreated cytosol/membrane and compactin cytosol/membrane, etc., refer to the fractions obtained from these cells. Values are the result of duplicate determinations within each experiment. Values in parentheses represent the percent of the rate obtained for the respective untreated HL-60 sample. Whether the inhibited factor(s) was present in the membrane fraction or cytosol was determined via performing complementation experiments using cytosol or membranes from normal human neutrophils. Data from these experiments is illustrated above in Table 3 and in FIG. 2. FIG. 2 illustrates complementation analysis of O2 -formation by control versus compactin-treated HL-60 cells. O2 --formation was analyzed in a cell-free assay as described in the Examples. Line A represents untreated HL-60 membrane +neutrophil GSS; line B represents compactin-treated HL-60 membrane+neutrophil GSS; line C represents untreated HL-60 cytosol+neutrophil gamma GSP; line D represents compactin-treated HL-60 cytosol+neutrophil gamma GSP.

[6] = Exp. 1, compactin cytosol + compactin membrane
[7] = Exp. 1, compactin cytosol + neutrophil membrane
[8] = Exp. 1, neutrophil cytosol + compactin membrane
[9] = Exp. 2, compactin cytosol + compactin membrane
[10] = Exp. 2, compactin cytosol + neutrophil membrane
[11] = Exp. 2, neutrophil cytosol + compactin membrane
[12] = Exp. 3, compactin cytosol + neutrophil membrane
[13] = Exp. 3, neutrophil cytosol + compactin membrane

SMILES: CC[C@H](C)C(=O)O[C@H]1CCC=C2C=C[C@H](C)[C@H](CC[C@@H]3C[C@@H](O)CC(=O)O3)[C@H]21 [compactin]
- Rap1 membrane association after treatment [1]: a portion of this GTP-binding protein was still membrane associated
- appearance of Rap1 in the cytosolic fraction [1]: large amounts
- total Rap1 previously associated with the membrane pellet now soluble ([1]; densitometry, n=3): 60-70%
- expression of cytochrome b558 [2]: normal
- ability of HL-60 cells to differentiate normally upon exposure to DMSO [3]: neither was the ability of these cells to differentiate normally
- N-formyl peptide receptor expression [4]: normal
- rate and extent of the burst, fractions from compactin-pretreated cells ([5]; 10 μM compactin, compactin cytosol + compactin membrane, 100 μM SDS): less than 10 % of control values
- Rate of O2 formation [5, 6]: 0.1 nmol/min
- Rate, percent of respective untreated HL-60 sample [5, 6]: 1%
- Rate of O2 formation [5, 7]: 1.1 nmol/min
- Rate, percent of respective untreated HL-60 sample [5, 7]: 33%
- Rate of O2 formation [5, 8]: 1.9 nmol/min
- Rate, percent of respective untreated HL-60 sample [5, 8]: 95%
- Rate of O2 formation [5, 9]: 0.4 nmol/min
- Rate, percent of respective untreated HL-60 sample [5, 9]: 5%
- Rate of O2 formation [5, 10]: 1.5 nmol/min
- Rate, percent of respective untreated HL-60 sample [5, 10]: 37%
- Rate of O2 formation [5, 11]: 2.6 nmol/min
- Rate, percent of respective untreated HL-60 sample [5, 11]: 100%
- Rate of O2 formation [5, 12]: 2.4 nmol/min
- Rate, percent of respective untreated HL-60 sample [5, 12]: 47%
- Rate of O2 formation [5, 13]: 4.0 nmol/min
- Rate, percent of respective untreated HL-60 sample [5, 13]: 98%
- rate of O2- formation relative to untreated HL-60 cytosol ([5]; compactin cytosol + neutrophil membrane): about one-third
- lag period after addition of SDS ([5]; compactin cytosol + neutrophil membrane, FIG. 2): marked increase
- rate of O2- formation with membrane from compactin-treated cells ([5]; compactin membrane + neutrophil cytosol, versus untreated): essentially identical
- ability of cytosol to support oxidative response ([5]; cytosol from compactin-treated cells): largely defective
- ability of membrane fraction to support respiratory burst ([5]; membrane from compactin-treated cells): fully support a normal respiratory burst
